4 molecules from US20240140986A1, “SYNTHETIC URSOLIC ACID DERIVATIVES AND METHODS OF USE THEREOF” (REATA PHARMACEUTICALS, INC., priority 2021, published 2024) can be followed below.

Assay [1] relates to Nrf2 / ARE-dependent luciferase in AREc32 reporter cell line. Kind of assay: AREc32 luciferase reporter activation (Nrf2 induction). Type of assay: cell-based, human. To be noted: Table 2; for EC (2-fold): Homo sapiens, Arec32, concentration increasing luminescence 2-fold above vehicle, 19 h treatment, read-out: Avg AREc32 EC2X (nM) (Mean ± SD); for Relative Avg AREc32 EC2X Relative to RTA402 (fold): ratio to RTA402. The gist of the method:
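EC2X is the concentration raising luminescence 2-fold above DMSO-treated cells, from a nonlinear-regression dose–response fit. Compounds (0.03–1000 nM) were applied for nineteen hours, starting one day after seeding 20,000 reporter cells per well. Luciferase was read with One-Glo reagent.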
(In general: A reporter such as luciferase makes a cellular process visible.)

The test system of assay [2] is IFNγ-induced NO production in RAW 264.7 cells. The experiment in a line: Nitric Oxide Suppression Assay (IFNγ-induced NO, Griess nitrite readout). The assay is classed as cell-based, mouse. The following applies: for IC50: Mus musculus, RAW264.7, Table 2, RAW 264.7 cells, 2 h pretreatment, 20 ng/mL interferon gamma 24 h, read-out: Avg NO IC50 (nM) (Mean ± SD); for Avg NO IC50 Relative to RTA402 (fold): Table 2, ratio to RTA402. Summed up: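 Nitrite, a surrogate for NO, was measured by Griess reagent (525 nm) and quantified from standards by linear regression, expressed as percent of DMSO plus IFNγ control to give IC50. RAW 264.7 cells had 2 h compound pretreatment, then 24 h with 20 ng/mL IFNγ; WST-1 checked viability.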
On the technique in general: Nitrite, measured by Griess reagent, commonly stands in for NO production.

As usually defined, the IC50 is the concentration that gives 50% inhibition. Regarding `CNC(=O)CC[C@]12CC[C@@H](C)[C@H](C)[C@H]1[C@H]1C(=O)C[C@@H]3[C@@]4(C)C=C(C#N)C(=O)C(C)(C)[C@@H]4CC[C@@]3(C)[C@]1(C)CC2` [Compound T104], in assay [1], the EC (2-fold) was determined as 29.5 ± 2.5 nM and the “Relative Avg AREc32 EC2X Relative to RTA402 (fold)” value amounted to 3.15 ± 0.64 fold. Also, in assay [2], the half-maximal inhibitory concentration (IC50) is 19.1 ± 4.9 nM and the “Avg NO IC50 Relative to RTA402 (fold)” value turned out to be 12.6 ± 1.9 fold.
In the case of `C[C@@H]1[C@H]2[C@H]3C(=O)C[C@@H]4[C@@]5(C)C=C(C#N)C(=O)C(C)(C)[C@@H]5CC[C@@]4(C)[C@]3(C)CC[C@@]2(CCC(=O)N2CCC2)CC[C@H]1C` [Compound T105], in assay [1], the EC (2-fold) worked out at 103 ± 37 nM and the “Relative Avg AREc32 EC2X Relative to RTA402 (fold)” value is 10.7 ± 3.3 fold. In assay [2], the IC50 is 52.4 ± 13.8 nM and the “Avg NO IC50 Relative to RTA402 (fold)” value was 36.7 ± 17^ fold.
`C[C@@H]1[C@H]2[C@H]3C(=O)C[C@@H]4[C@@]5(C)C=C(C#N)C(=O)C(C)(C)[C@@H]5CC[C@@]4(C)[C@]3(C)CC[C@@]2(CNC(=O)OC(C)(C)C)CC[C@H]1C` [Compound T106]: in assay [1], the EC (2-fold) turned out to be 265 ± 21 nM and the “Relative Avg AREc32 EC2X Relative to RTA402 (fold)” value came to 28.2 ± 4.5 fold. Moreover, in assay [2], the 50% inhibitory concentration (IC50) was 57.4 ± 15.7 nM and the “Avg NO IC50 Relative to RTA402 (fold)” value came out at 37.4 ± 3.76 fold.
On to `CC(=N)NOC(=O)[C@]12CC[C@@H](C)[C@H](C)[C@H]1[C@H]1C(=O)C=C3[C@@]4(C)C=C(C#N)C(=O)C(C)(C)[C@@H]4CC[C@@]3(C)[C@]1(C)CC2` [Compound T107], for which, in assay [1], the EC (2-fold) worked out at 12.9 ± 1.5 nM and the “Relative Avg AREc32 EC2X Relative to RTA402 (fold)” value came to 1.17 ± 0.25 fold. Further, in assay [2], the IC50 stood at 17.7 ± 6.9 nM and the “Avg NO IC50 Relative to RTA402 (fold)” value is listed as 7.07 ± 1.53 fold.
